Values after ≈ are worked out from the molar mass of the structure shown.
Columns and labels:
St. PYOGENES = assay: Minimum Inhibitory Concentration (MIC), broth dilution in Brain Heart Infusion broth; assay type: cell-based; conditions: 37° C., 48 hours; for MIC: Streptococcus pyogenes
Experimental: (§1) For testing against the bacteria, concentrations of each of the compounds were prepared in Brain Heart Infusion broth (Oxoid CM225) in two-fold steps from 1000 μg/ml to 1 μg/ml. Solutions containing 1000 μg/ml were prepared by dissolving 20 mg of each compound in 5 ml of acetone and this was then made up to 20 ml with Brain Heart Infusion Broth. Serial two-fold dilutions were then prepared in the broth down to 1 μg/ml.
(§2) For testing against the bacteria each of the prepared test concentrations and acetone controls prepared in Brain Heart Infusion were dispensed in 2 ml amounts for each organism. A growth control of 2 ml of Brain Heart Infusion was included in each series.
(§3) To each of the prepared sets of concentrations of each compound were added 0.1 ml aliquots of the organism suspensions prepared as described previously. All the bottles were incubated at 37° C. for 48 hours in the case of the bacteria and from 5 to 15 days for the fungi (until growth controls had grown in each case).
(§4) After incubation the broths were examined for evidence of growth. The lowest concentration of the test compound which prevented growth was recorded as the Minimum Inhibitory Concentration (MIC).

[1] = Acute oral toxicity in CD-1 mice; assay type: in vivo; conditions: mouse, in vivo, male and female CD-1 mice, dose levels 1000, 464, 215 and 100 mg/kg, 7 days observation
Experimental: (§5) Male and female CD-1 mice were fasted for 18 hours prior to the experiment, but water was available ad libitum except during the observation period. The test compounds were prepared in 1% tragacanth and were administered orally to groups of two male and two female mice.
(§6) All compounds were tested at dose levels of 1000, 464, 215 and 100 mg/kg. Immediately after dosing, the mice were replaced in their "home" cage and were observed daily for 7 days post dose and any mortalities recorded.
(§7) The acute toxicities, as determined by the above procedure, of a number of representative compounds are given in the accompanying table.

Tr. RUBRUM = assay: Minimum Inhibitory Concentration (MIC), dilution in Sabouraud liquid medium; assay type: cell-based; conditions: 37° C., 5 to 15 days; for MIC: Trichophyton rubrum
Experimental: (§8) For testing against the fungi, concentrations of each of the compounds were prepared in Sabouraud liquid medium in two-fold steps from 100 μg/ml to 0.1 μg/ml. 500 μg/ml solutions were prepared by dissolving 10 mg in 5 ml of acetone, made up to 20 ml with Sabouraud liquid medium. 4 ml of the 500 μg/ml concentration was then made up to 20 ml with Sabouraud liquid medium to give a concentration of 100 μg/ml. Serial two-fold dilutions were prepared from this in the same medium down to 0.1 μg/ml.
(§9) For the fungi the same procedure was followed using the concentrations made up in Sabouraud liquid medium. The Nystatin concentrations were also dispensed in 2 ml amounts for each organism. Growth controls of Sabouraud liquid medium were included in each series.
as §3, §4

C. ALBICANS = assay: as above; assay type: cell-based; conditions: 37° C., 5 to 15 days; for MIC: Candida albicans
Experimental: as §8, §9, §3, §4

Tr. MENTAGROPHYTES = assay: as above; assay type: cell-based; conditions: 37° C., 5 to 15 days; for MIC: Trichophyton mentagrophytes
Experimental: as §8, §9, §3, §4

Sp. SCHENKII = assay: as above; assay type: cell-based; conditions: 37° C., 5 to 15 days
Experimental: as §8, §9, §3, §4

Mic. CANIS = assay: as above; assay type: cell-based; conditions: 37° C., 5 to 15 days; for MIC: Microsporum canis
Experimental: as §8, §9, §3, §4

S. AUREUS = assay: Minimum Inhibitory Concentration (MIC), broth dilution in Brain Heart Infusion broth; assay type: cell-based, Staphylococcus aureus; conditions: 37° C., 48 hours, Brain Heart Infusion broth; for MIC: Staphylococcus aureus, read-out: MIC S. AUREUS
Experimental: as §1, §2, §3, §4

bacteria = conditions: literature (W. Riedl); cited from earlier work
CD-1 mice = assay: Acute oral toxicity in CD-1 mice; assay type: in vivo; conditions: male and female CD-1 mice, dose levels 1000, 464, 215 and 100 mg/kg, 7 days observation
Experimental: as §5, §6, §7

Row | Compound | MIC (St. PYOGENES) [µg/mL] | LD50 at 168 h [1] [mg/kg] | MIC (Tr. RUBRUM) [µg/mL] | MIC (C. ALBICANS) [µg/mL] | MIC (Tr. MENTAGROPHYTES) [µg/mL] | MIC (Sp. SCHENKII) [µg/mL] | MIC (Mic. CANIS) [µg/mL] | MIC (S. AUREUS) [µg/mL] | antibiotic / antibacterial activity (in words) (bacteria) | further results
1 | CCCC(=O)c1c(O)c2c(c(C(=O)CCC)c1O)OC(C)(C)CC2 [Compound 36, 5,7-Dihydroxy-6,8-dibutyryl-2,2-dimethylchroman] | 64 (≈ 191 µM) | > 1000 | 100 (≈ 299 µM) | 100 (≈ 299 µM) | 100 (≈ 299 µM) | 100 (≈ 299 µM) | 100 (≈ 299 µM) | 250 (≈ 748 µM) | – | –
2 | CCCC(=O)c1c(O)c2c(c(C(=O)CCC)c1O)OC(C)C2 (centres unmarked) [Compound 37, 4,6-dihydroxy-5,7-dibutyryl-2-methyl-2,3-dihydrobenzofuran] | 32 (≈ 104 µM) | > 215 | 100 (≈ 326 µM) | > 100 | > 100 | > 100 | > 100 | 125 (≈ 408 µM) | – | –
3 | CC(C)=CCC1=C(O)C(O)(CC=C(C)C)C(=O)C(C(=O)CC(C)C)=C1O (centres unmarked) [humulon] | – | – | – | – | – | – | – | – | certain antibiotic properties | –
4 | CC(C)=CCC1=C(O)C(C(=O)CC(C)C)=C(O)C(CC=C(C)C)(CC=C(C)C)C1=O [lupulone] | – | – | – | – | – | – | – | – | certain antibiotic properties | –
5 | either 7-butyryl-4,6-dihydroxy-2-methyl-2,3-dihydrobenzofuran or 5-butyryl-4,6-dihydroxy-2-methyl-2,3-dihydrobenzofuran [Compound 35] | – | – | – | – | – | – | – | – | – | MIC St. PYOGENES (St. PYOGENES): 32 µg/mL; LD50 (CD-1 mice): > 1000; MIC Tr. RUBRUM (Tr. RUBRUM): 25 µg/mL; MIC C. ALBICANS (C. ALBICANS): 25 µg/mL; MIC Tr. MENTAGROPHYTES (Tr. MENTAGROPHYTES): 25 µg/mL; MIC Sp. SCHENKII (Sp. SCHENKII): 50 µg/mL; MIC Mic. CANIS (Mic. CANIS): 12,5 μg/ml; MIC S. AUREUS (S. AUREUS): 125 µg/mL
